Laboratory results reported in patent publication US12060347B2 (BRISTOL-MYERS SQUIBB COMPANY, priority 2016, dated 2024).

target: T1, human PAR4 (Homo sapiens, UniProt Q96RI0); test: PAR4 FLIPR assay: antagonism of agonist-peptide-induced calcium mobilization in PAR4-expressing HEK293 cells; type: cell-based; conditions: H-Ala-Phe(4-F)-[…]NH2-induced intracellular calcium mobilization, 11-point curves
T1 construct: expressed in transfected cells; host or cells: HEK293 PAR4 Clone 1.2A (BMS Arctic ID 383940)
T1 sequence (Q96RI0 18-385): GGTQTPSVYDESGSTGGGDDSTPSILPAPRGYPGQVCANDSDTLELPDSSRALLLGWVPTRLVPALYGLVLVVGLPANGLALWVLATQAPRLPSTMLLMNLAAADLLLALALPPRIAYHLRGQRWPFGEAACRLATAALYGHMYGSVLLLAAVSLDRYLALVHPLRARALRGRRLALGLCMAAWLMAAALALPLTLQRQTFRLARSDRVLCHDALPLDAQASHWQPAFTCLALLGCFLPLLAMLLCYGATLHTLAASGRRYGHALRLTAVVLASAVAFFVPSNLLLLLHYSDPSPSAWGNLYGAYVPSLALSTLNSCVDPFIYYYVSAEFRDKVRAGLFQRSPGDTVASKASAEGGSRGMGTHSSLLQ

SMILES	IC50 [nM]
COc1cnc2c(-c3nc4cc(F)c(OC[C@@H](C)OC(=O)Nc5ccc(C(=O)N6CCOC[C@@H]6CO)nc5)cc4s3)cc(C)cc2n1 [Example 489, (R)-1-((5-fluoro-2-(2-methoxy-7-methylquinoxalin-5-yl)benzo[d]thiazol-6-yl)oxy)propan-2-yl (6-((S)-3-(hydroxymethyl)morpholine-4-carbonyl)pyridin-3-yl)carbamate]	9.1
COCc1cnc2c(-c3nc4c(Cl)cc(OC)cc4s3)cccc2n1 [Example 212, 4-chloro-6-methoxy-2-(2-(methoxymethyl)quinoxalin-5-yl)benzo[d]thiazole]	2.4
COc1cnc2c(-c3nc4cc(F)c(OC[C@@H](C)OC(=O)Nc5ccc(C(=O)NC[C@H](C)O)nc5)nc4s3)cc(C)cc2n1 [Example 748, (R)-1-((6-fluoro-2-(2-methoxy-7-methylquinoxalin-5-yl)thiazolo[5,4-b]pyridin-5-yl)oxy) propan-2-yl (6-(((S)-2-hydroxypropyl)carbamoyl)pyridin-3-yl)carbamate]	2.9
COc1cnc2c(-c3nc4cc(F)c(OC[C@@H](C)OC(=O)Nc5ccc(C(=O)N6CC[C@H](CO)C6)nc5)cc4s3)cc(C)cc2n1 [Example 479, (R)-1-((5-fluoro-2-(2-methoxy-7-methylquinoxalin-5-yl)benzo[d]thiazol-6-yl)oxy)propan-2-yl (6-((S)-3-(hydroxymethyl)pyrrolidine-1-carbonyl)pyridin-3-yl)carbamate]	1.4
COc1cnc2c(-c3nc4c(Cl)c(F)c(OCCOC(=O)Nc5ccc(C#N)nc5)cc4s3)cc(C)cc2n1 [Example 395, 2-((4-chloro-5-fluoro-2-(2-methoxy-7-methylquinoxalin-5-yl)benzo[d]thiazol-6-yl)oxy)ethyl (6-cyanopyridin-3-yl)carbamate]	5.8
COC(=O)NCCOc1ccc2oc(-c3cc(C)cc4nc(OC(F)F)cnc34)cc2c1 [Example 46, methyl 2-(2-(2-(difluoromethoxy)-7-methylquinoxalin-5-yl)benzofuran-5-yloxy)ethylcarbamate]	17
COc1cnc2c(-c3nc4c(Cl)c(F)c(OCCOC(=O)Nc5cccnc5)cc4s3)cc(C)cc2n1 [Example 331, 2-((4-chloro-5-fluoro-2-(2-methoxy-7-methylquinoxalin-5-yl)benzo[d]thiazol-6-yl)oxy)ethyl pyridin-3-ylcarbamate]	9.2
CCOc1cnc2c(-c3nc4cc(F)c(O[C@@H](C)[C@@H](C)OC(=O)Nc5cnc(C)nc5)cc4s3)cc(Cl)cc2c1 [Example 649, (2R,3S)-3-((2-(6-chloro-3-ethoxyquinolin-8-yl)-5-fluorobenzo[d]thiazol-6-yl)oxy)butan-2-yl (2-methylpyrimidin-5-yl)carbamate]	7.4
COc1cnc2c(-c3nc4c(C)cc(OCCNS(=O)(=O)c5cccnc5)cc4s3)cc(Cl)cc2n1 [Example 249, N-(2-((2-(7-chloro-2-methoxyquinoxalin-5-yl)-4-methylbenzo[d]thiazol-6-yl)oxy)ethyl)pyridine-3-sulfonamide]	6.9
COc1cnc2c(-c3nc4cc(F)c(OC[C@@H](C)OC(=O)Nc5ccc(C(=O)NCC6(CO)CCC6)nc5)cc4s3)cc(C)cc2n1 [Example 473, (R)-1-((5-fluoro-2-(2-methoxy-7-methylquinoxalin-5-yl)benzo[d]thiazol-6-yl)oxy)propan-2-yl (6-(((1-(hydroxymethyl)cyclobutyl)methyl)carbamoyl)pyridin-3-yl)carbamate]	3.4
COc1cc(CO)c2nc(-c3cc(C)cc4nc(OC)cnc34)sc2c1 [Example 154, (6-methoxy-2-(2-methoxy-7-methylquinoxalin-5-yl)benzo[d]thiazol-4-yl)methanol]	3.8
Cc1cc(-c2nc3cccc(OCC(=O)Nc4ccccc4)c3s2)c2ncc(OC(F)F)nc2c1 [Example 82, 2-(2-(2-(difluoromethoxy)-7-methylquinoxalin-5-yl)benzo[d]thiazol-7-yloxy)-N-phenylacetamide]	280
COc1cnc2c(-c3nc4c(Cl)c(F)c(OC[C@@H](C)OC(=O)Nc5ccnc(CO)c5)cc4s3)cc(C)cc2n1 [Example 494, (R)-1-((4-chloro-5-fluoro-2-(2-methoxy-7-methylquinoxalin-5-yl)benzo[d]thiazol-6-yl)oxy)propan-2-yl (2-(hydroxymethyl)pyridin-4-yl)carbamate]	1.8
Cc1ncc(NC(=O)O[C@H](C)[C@H](C)Oc2cc3sc(-c4cc(Cl)cc5cc(OC(F)F)cnc45)nc3cc2F)cn1 [Example 650, (2R,3S)-3-((2-(6-chloro-3-(difluoromethoxy)quinolin-8-yl)-5-fluorobenzo[d]thiazol-6-yl)oxy)butan-2-yl (2-methylpyrimidin-5-yl)carbamate]	5.6
COc1cnc2c(-c3nc4c(Cl)c(F)c(OCCOC(=O)Nc5ccns5)cc4s3)cc(C)cc2n1 [Example 621, 2-((4-chloro-5-fluoro-2-(2-methoxy-7-methylquinoxalin-5-yl)benzo[d]thiazol-6-yl)oxy)ethyl isothiazol-5-ylcarbamate]	8
COc1cnc2c(-c3nc4cc(F)c(OC[C@@H](C)OC(=O)Nc5ccc(C(N)=O)nc5)cc4s3)cc(C)cc2n1 [Example 434, (R)-1-((5-fluoro-2-(2-methoxy-7-methylquinoxalin-5-yl)benzo[d]thiazol-6-yl)oxy)propan-2-yl (6-carbamoylpyridin-3-yl)carbamate]	1.4
COc1cnc2c(-c3nc4cc(F)c(O[C@@H](C)[C@@H](C)OC(=O)Nc5cnc(C(C)(C)O)nc5)cc4s3)cc(C)cc2n1 [Example 501, (2R,3S)-3-((5-fluoro-2-(2-methoxy-7-methylquinoxalin-5-yl)benzo[d]thiazol-6-yl)oxy)butan-2-yl (2-(2-hydroxypropan-2-yl)pyrimidin-5-yl)carbamate]	4
COc1cnc2c(-c3nc4c(Cl)c(F)c(OCCOC(=O)Nc5cn[nH]c5)cc4s3)cc(C)cc2n1 [Example 364, 2-((4-chloro-5-fluoro-2-(2-methoxy-7-methylquinoxalin-5-yl)benzo[d]thiazol-6-yl)oxy)ethyl 1H-pyrazol-4-ylcarbamate]	19
Cc1cc(-c2nc3cc(F)c(O[C@@H](C)[C@@H](C)OC(=O)Nc4cnc(C)nc4)cc3s2)c2ncc(OC(C)C)nc2c1 [Example 492, (2R,3S)-3-((5-fluoro-2-(2-isopropoxy-7-methylquinoxalin-5-yl)benzo[d]thiazol-6-yl)oxy) butan-2-yl (2-methylpyrimidin-5-yl)carbamate]	7.4
COc1cnc2c(-c3nc4cc(F)c(O[C@@H](C)[C@@H](C)OC(=O)Nc5cnc(CCO)nc5)cc4s3)cc(C)cc2n1 [Example 565, (2R,3S)-3-((5-fluoro-2-(2-methoxy-7-methylquinoxalin-5-yl)benzo[d]thiazol-6-yl)oxy)butan-2-yl (2-(2-hydroxyethyl)pyrimidin-5-yl)carbamate]	3

The next compounds have a lower IC50 than those just listed; values first:

IC50 [nM]	SMILES
0.6	COc1cnc2c(-c3nc4cc(F)c(O[C@@H](C)COC(=O)Nc5cccnc5)cc4s3)cc(C)cc2n1 [Example 345, (S)-2-((5-fluoro-2-(2-methoxy-7-methylquinoxalin-5-yl)benzo[d]thiazol-6-yl)oxy)propyl pyridin-3-ylcarbamate]
0.7	COc1cnc2c(-c3nc4cc(F)c(O[C@@H](C)[C@@H](C)OC(=O)Nc5cnc(OCCO)nc5)cc4s3)cc(C)cc2n1 [Example 556, (2R,3S)-3-((5-fluoro-2-(2-methoxy-7-methylquinoxalin-5-yl)benzo[d]thiazol-6-yl)oxy)butan-2-yl (2-(2-hydroxyethoxy)pyrimidin-5-yl)carbamate]
0.4	COc1cnc2c(-c3nc4cc(F)c(O[C@@H](C)[C@@H](C)OC(=O)Nc5cccnc5)nc4s3)cc(C)cc2n1 [Example 709, (2R,3S)-3-((6-fluoro-2-(2-methoxy-7-methylquinoxalin-5-yl)thiazolo[5,4-b]pyridin-5-yl)oxy)butan-2-yl pyridin-3-ylcarbamate]
1	CCOc1cc(C)c2nc(-c3cc(C)cc4nc(COC)cnc34)sc2c1 [Example 306]
0.7	COc1cnc2c(-c3nc4cc(F)c(O[C@@H](C)[C@@H](C)OC(=O)Nc5ccc(N6CCCC6)nc5)cc4s3)cc(C)cc2n1 [Example 605, (2R,3S)-3-((5-fluoro-2-(2-methoxy-7-methylquinoxalin-5-yl)benzo[d]thiazol-6-yl)oxy)butan-2-yl (6-(pyrrolidin-1-yl)pyridin-3-yl)carbamate]
1.2	COCc1cnc2c(-c3nc4cc(C)c(OC)cc4s3)cc(C)cc2n1 [Example 276, 6-methoxy-2-(2-(methoxymethyl)-7-methylquinoxalin-5-yl)-5-methylbenzo[d]thiazole]
0.5	COc1cnc2c(-c3nc4cc(F)c(O[C@@H](C)[C@@H](C)OC(=O)Nc5ccc(CC(C)(C)O)nc5)cc4s3)cc(Cl)cc2n1 [Example 835, (2R,3S)-3-((2-(7-chloro-2-methoxyquinoxalin-5-yl)-5-fluorobenzo[d]thiazol-6-yl)oxy)butan-2-yl (6-(2-hydroxy-2-methylpropyl)pyridin-3-yl)carbamate]
0.5	COCc1cnc2c(-c3nc4c(C(O)C(C)(C)C)cc(OC)cc4s3)cc(C)cc2n1 (single isomer, unassigned) [Example 164, 1-(6-methoxy-2-(2-(methoxymethyl)-7-methylquinoxalin-5-yl)benzo[d]thiazol-4-yl)-2,2-dimethylpropan-1-ol]
0.4	COc1cnc2c(-c3nc4cc(F)c(OC[C@@H](C)OC(=O)Nc5cncnc5)cc4s3)cc(C)cc2n1 [Example 409, (R)-1-((5-fluoro-2-(2-methoxy-7-methylquinoxalin-5-yl)benzo[d]thiazol-6-yl)oxy)propan-2-yl pyrimidin-5-ylcarbamate]
